{"source": "patent US4525348A", "about": "“Pranoprofen gelled ointment” (priority 1983, dated 1985)", "key": {"[1]": {"experiment": "Percutaneous absorption and excretion (Experiment 8)", "details": "rat", "text": "Male Donryu rats weighing 120-140 g were divided into groups of 4 animals each. The backs of the rats were shaved with an electric clipper and an electric shaver. […] After this application, the test ointment remaining was wiped off at a set time with absorbent cotton moistened with 50% ethanol. The contained ^14 C was eluted with methanol and determined by conventional methods."}, "[2]": {"details": "oral administration, as compared with indomethacin or other nonsteroid agents; cited from earlier work"}}, "data": [{"smiles": "CC(C(=O)O)c1ccc2c(c1)Cc1cccnc1O2", "note": "(stereo not drawn) [pranoprofen]", "values": [{"measurement": "Half life of disappearance from blood", "setting": "[1]; absorbed pranoprofen, topical", "result": "about 5 hours"}, {"measurement": "Excretion route", "setting": "[1]; in vivo", "result": "excreted mainly into urine and feces"}, {"measurement": "Adverse effects such as gastroenteric disorders", "setting": "[2]", "result": "very rarely"}]}]}
